In paper PMC11093748, “De novo identification of CD4^+ T cell epitopes” (Nature Methods, 2024):

Legend:
[1] = system: TCR4; assay: Single SABR-II co-incubation, NFAT-GFP Jurkat; type: cell-based, mouse; conditions: TCR 4
Method in brief: (§1)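 Single SABR-II constructs for putative cognate epitopes were expressed in CellTrace Violet-labelled NFAT–GFP Jurkat cells and co-incubated 1:1 (5 × 10^5 each) with TCR-expressing Jurkat cells for 16–20 h. GFP (with CD69 staining when indicated) was measured by flow cytometry. Wells with GFP above the no-TCR control were scored positive.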

[2] = system: Jurkat cells, No TCR; assay: Single SABR-II co-incubation, background without TCR; type: cell-based, human
Method in brief: as §1

[3] = system: TCR24; assay: Single SABR-II co-incubation, NFAT-GFP Jurkat; type: cell-based, mouse; conditions: TCR 24, Fig 3B, 18 h
Method in brief: as §1

[4] = system: TCR11; assay: Single SABR-II co-incubation, NFAT-GFP Jurkat; type: cell-based, mouse; conditions: TCR 11
Method in brief: as §1

[5] = system: 5KC cells, No TCR; assay: mIL-2 ELISA, 5KC cells without TCR with SABR NFAT-GFP Jurkat cells; type: cell-based, mouse; conditions: murine IL-2 ELISA, 24 hr co-incubation
[6] = system: GSE.20D11 TCR; assay: HLA-DQ8 SABR-II (+ HLA-A2.1 SABR) library screen, enrichment score; type: cell-based, human; conditions: combined class I and II library
Description: To test whether HLA-DQ8 SABR-II could be used for antigen discovery, we curated a list of insulin B, insulin C and HIP epitopes published by Wiles et al.[58] and cloned them into the DQ8 SABR-II backbone using the same pooled cloning strategy as the I-Ag7 SABR-II library (Supplementary Table 2). Furthermore, we combined SABR-I (the HLA-A*0201 library reported in our previous work[27]) and SABR-II libraries at a cellular level and screened against the GSE.20D11 TCR.
To generate the I-Ag7 restricted SABR library, we combined all Immune Epitope Database epitopes with a published immunopeptidome generated by Wan et al.[51]. Sequences were filtered remove all post-translational modifications except deamidation and HIPs and trimmed between 9–25 amino acid lengths. For the insulin C HIP and HLA-DQ8 library, non-contiguous epitopes from Wiles et al.[66] as well as all Immune Epitope Database epitopes were combined to generate the epitope list. Epitope sequences were back-translated using the backtranslate_fast.py script.
For SABR library screens, 3 × 10^6 NFAT–GFP Jurkat cells expressing the SABR library were labeled with CellTrace Violet (BioLegend) according to the manufacturer’s protocol before incubation with 3 × 10^6 Jurkat cells expressing the TCR of interest. These mixtures were incubated in a six-well plate for 16–20 h. Cells were stained with anti-CD69-APC-Cy7 where indicated (BioLegend) and the top 1–2% of GFP^+CD69^+ cells were sorted for genomic DNA extraction, indexing and sequencing (see below). Multiplexed assays were scaled on a per-TCR basis (for example 3 × 10^6 for each of three TCRs against 9 × 10^6 library cells). For single SABR assays, unless otherwise defined, 5 × 10^5 SABR expressing NFAT–GFP Jurkat cells (or 5KC cells) were labeled with CellTrace Violet (BioLegend) according to the manufacturer’s protocol before incubation with 5 × 10^5 TCR-expressing Jurkat cells (or 5KC cells) in a round-bottom 96-well plate for 16–20 h. Cells were stained with anti-CD69-APC-Cy7 when indicated and acquired on the Attune NxT flow cytometer (Thermo Fisher Scientific). All flow analysis was performed using FlowJo (BD). For Daudi cell co-culture, 1 × 10^6 Jurkat cells expressing the TCR of interest were incubated with 1 × 10^6 Daudi cells expressing a SABR of interest for 3 days. On day 3, cells were labeled with anti-RT1B-PE and anti-Fas-APC-Cy7 before being acquired on the Attune NxT flow cytometer.
Genomic DNA was extracted from sorted cells immediately after sorting, using the PureLink genomic DNA extraction kit (Life Technologies). The integrated SABR vectors were amplified with KOD polymerase (Millipore) and two rounds of amplification. In the first round, IDT-UD-SABR-C2-F and IDT-UD-SABR-C2-R primers were used to amplify the epitope. In the second round, UDI0001-R and UDI0001-F primers (representative of index 1) were used to add Illumina unique dual indexes (UDIs) to the amplicons. A different UDI was used for each sample. The reactions were pooled and purified with the NucleoSpin gel and PCR purification kit (Takara). The purified PCR product was checked before sequencing using 2% agarose gel and subjected to sequencing on a HiSeq4000 (Fulgent Genetics). Unaligned reads generated by the sequencer were stored in FASTQ files. FASTQ files were concatenated to generate one file for read1 and read2 each. The sequences were demultiplexed into individual indexes using demultiplex_dual.py. Epitopes were extracted and scored using epitope_extract_fastq_v1.1.py and merge_counts_split_v2.1.py. The ES was calculated using Microsoft Excel (Microsoft) workbooks.

[7] = Fig 3B, 18 h, biological replicate 1
[8] = Fig 3B, 18 h, biological replicate 2
[9] = Fig 3B, 18 h, biological replicate 3
[10] = No TCR, Fig 3B, 18 h, biological replicate 1
[11] = No TCR, Fig 3B, 18 h, biological replicate 2
[12] = No TCR, Fig 3B, 18 h, biological replicate 3
[13] = No TCR, Fig 4B, technical replicate 1
[14] = No TCR, Fig 4B, technical replicate 2

## LQTLALNAARDP
[1]; Ext. Data Fig. 6C, 18-20 hr, technical replicate 1
  %GFP+CD69+ cells of SABR-NFAT-GFP-Jurkat cells: 21.3%
[1]; Ext. Data Fig. 6C, 18-20 hr, technical replicate 2
  %GFP+CD69+ cells of SABR-NFAT-GFP-Jurkat cells: 21.3%
[1]; [7]
  %GFP+CD69+ cells of SABR-NFAT-GFP-Jurkat cells: 36.63%
[1]; [8]
  %GFP+CD69+ cells of SABR-NFAT-GFP-Jurkat cells: 32.63%
[1]; [9]
  %GFP+CD69+ cells of SABR-NFAT-GFP-Jurkat cells: 39.93%
[1]; Fig 4B, technical replicate 1
  %GFP+CD69+ cells of SABR-NFAT-GFP-Jurkat cells: 25.9%
[1]; Fig 4B, technical replicate 2
  %GFP+CD69+ cells of SABR-NFAT-GFP-Jurkat cells: 25.4%
[1]; Fig 5C, technical replicate 1
  %GFP+CD69+ cells of SABR-NFAT-GFP-Jurkat cells: 42.4%
[1]; Fig 5C, technical replicate 2
  %GFP+CD69+ cells of SABR-NFAT-GFP-Jurkat cells: 42.4%
[2]; No TCR, Ext. Data Fig. 6C, 18-20 hr, technical replicate 1
  %GFP+CD69+ cells of SABR-NFAT-GFP-Jurkat cells: 3.08%
[2]; No TCR, Ext. Data Fig. 6C, 18-20 hr, technical replicate 2
  %GFP+CD69+ cells of SABR-NFAT-GFP-Jurkat cells: 3.07%
[2]; [10]
  %GFP+CD69+ cells of SABR-NFAT-GFP-Jurkat cells: 2.51%
[2]; [11]
  %GFP+CD69+ cells of SABR-NFAT-GFP-Jurkat cells: 6.93%
[2]; [12]
  %GFP+CD69+ cells of SABR-NFAT-GFP-Jurkat cells: 3.6%
[2]; [13]
  %GFP+CD69+ cells of SABR-NFAT-GFP-Jurkat cells: 1.39%
[2]; [14]
  %GFP+CD69+ cells of SABR-NFAT-GFP-Jurkat cells: 1.36%
[2]; No TCR, Fig 5C, technical replicate 1
  %GFP+CD69+ cells of SABR-NFAT-GFP-Jurkat cells: 0.73%
[2]; No TCR, Fig 5C, technical replicate 2
  %GFP+CD69+ cells of SABR-NFAT-GFP-Jurkat cells: 0.75%

## SHLVEALYLVCGERG
[3]; biological replicate 1
  %GFP+CD69+ cells of SABR-NFAT-GFP-Jurkat cells: 14.87%
[3]; biological replicate 2
  %GFP+CD69+ cells of SABR-NFAT-GFP-Jurkat cells: 17.6%
[3]; biological replicate 3
  %GFP+CD69+ cells of SABR-NFAT-GFP-Jurkat cells: 16.8%
[4]; [7]
  %GFP+CD69+ cells of SABR-NFAT-GFP-Jurkat cells: 7.09%
[4]; [8]
  %GFP+CD69+ cells of SABR-NFAT-GFP-Jurkat cells: 7.41%
[4]; [9]
  %GFP+CD69+ cells of SABR-NFAT-GFP-Jurkat cells: 7.96%
[4]; Fig 4B, technical replicate 1
  %GFP+CD69+ cells of SABR-NFAT-GFP-Jurkat cells: 4.58%
[4]; Fig 4B, technical replicate 2
  %GFP+CD69+ cells of SABR-NFAT-GFP-Jurkat cells: 4.07%
[5]; technical replicate 1
  IL-2 secretion: 2.192
[5]; technical replicate 2
  IL-2 secretion: 4.996
[6]
  enrichment in screen (in words): enriched at a high confidence level
[2]; Mock TCR, Fig 4B, technical replicate 1
  %GFP+CD69+ cells of SABR-NFAT-GFP-Jurkat cells: 3.46%
[2]; Mock TCR, Fig 4B, technical replicate 2
  %GFP+CD69+ cells of SABR-NFAT-GFP-Jurkat cells: 3.03%
[2]; [10]
  %GFP+CD69+ cells of SABR-NFAT-GFP-Jurkat cells: 2%
[2]; [11]
  %GFP+CD69+ cells of SABR-NFAT-GFP-Jurkat cells: 3.5%
[2]; [12]
  %GFP+CD69+ cells of SABR-NFAT-GFP-Jurkat cells: 1.84%
[2]; [13]
  %GFP+CD69+ cells of SABR-NFAT-GFP-Jurkat cells: 0.93%
[2]; [14]
  %GFP+CD69+ cells of SABR-NFAT-GFP-Jurkat cells: 1.04%
[2]; No TCR, Fig 4B, technical replicate 3
  %GFP+CD69+ cells of SABR-NFAT-GFP-Jurkat cells: 1.2%
